Literature values as cited in patent US20120302534A1, “DERIVATIVES OF BETULIN” (priority 2010, published 2012).

System: HIV

C=C(C)[C@@H]1CC[C@]2(C(=O)O)CC[C@]3(C)[C@H](CC[C@@H]4[C@@]5(C)CC[C@H](OC(=O)CC(C)(C)C(=O)O)C(C)(C)[C@@H]5CC[C@]43C)[C@@H]12 [Bevirimat]
reduced HIV viral load by a mean of (patients who achieved trough levels of >=20 μg/mL and without key baseline Gag polymorphisms at Q369, V370 or T371): 1.3 log10/mL | viral load reduction versus patients without Gag polymorphisms (users with Gag polymorphisms at Q369, V370 or T371): significantly lower load reductions
